Laboratory results taken from patent US8609173B2, “Compositions comprising sweetness enhancers and methods of making them” (Senomyx Inc., priority 2008, dated 2013).
In brackets after ≈: the same amount, converted by molar mass. Each block holds one compound with its values, some of them ahead of it.

Legend:
[1] = Preparation of liquid solutions in food grade solvents (dissolution trials, Table 3); format: physicochemical; conditions: for solubility rate: propylene glycol
Description: Liquid compositions of 3-(4-amino-2,2-dioxide-1H-benzo[c][1,2,6]thiadiazin-5-yloxy)-2′,2′-dimethyl-N-propylpropanamide were prepared using a variety of different solvents (Table 3). It was discovered by increasing the pH of the solution with alkaline substance, such as alkali metal salt, one can increase the concentration level of 3-(4-amino-2,2-dioxide-1H-benzo[c][1,2,6]thiadiazin-5-yloxy)-2′,2′-dimethyl-N-propylpropanamide in solutions. Examples of suitable alkali metal salt include, but are not limited to, sodium bicarbonate, sodium carbonate, sodium hydroxide, and the like. In propylene glycol, sodium bicarbonate will raise pH from 7.8 to 8.5; the solubility rate of 3-(4-amino-2,2-dioxide-1H-benzo[c][1,2,6]thiadiazin-5-yloxy)-2′,2′-dimethyl-N-propylpropanamide will be increased from 0.5% to 1.0%.
• 1. Weigh a desired amount of compound and sodium bicarbonate. • 2. Calculate the volume of food grade solvent(s) (water, ethyl alcohol, isopropyl alcohol, butylenes glycol, propylene glycol, triacetin, glycerol, vegetable oils (soy, corn, peanut, persic, cottonseed, sesame), olive oil, fractionated coconut oil, neobee, tributyrin, mono and diglycerides, ethyl lactate, ethyl levulinate, butyl stearate, triethyl citrate, diethyl succinate, diethyl malonate, acetic acid, lactic acid, phosphoric acid, benzyl alcohol, tetrahydrofurfural alcohol, D-limonene, γ-valerolactone, butyrolactone, polyethylene glycol sorbitan monostearate (Tween®), etc. to add to the dry, weighed out compound to make a concentration of 1,000-50,000 ppm (0.1-5%). • 3. Pre heat the appropriate amount of solvent to 100 to 200° F. while stirring at 1,100 rpm on a hot plate using a stir bar. • 4. Add pre-weighed compound to heated solvent (when temperature reaches 100 to 200° F.). • 5. Continue heating solvent and inspect to insure complete dissolution, return to the hot plate if necessary. Preparation Procedure for Water as a Solvent:
Preparation Procedure of the Liquid Diluted Form (without Heat): • 1. Weigh desire amount of compound. • 2. Calculate the volume of food grade solvent(s) (water, ethanol, propylene glycol, triacetin, glycerol, neobee, DI water, phosphoric acid, lactic acid, olive oil) to add to the dry, weighed out compound to make a concentration of 1,000-50,000 ppm (0.1-5%). • 3. Stir solvent at 1,100 rpm on a hot plate using a stir bar. • 4. Add pre-weighed compound to solvent. • 5. Continue stirring and inspect to insure complete dissolution, return to the hot plate if necessary.

[2] = Solubility in buffers and food grade solvents (Table 14); format: physicochemical
Description: Solubility of 3-(4-amino-2,2-dioxide-1H-benzo[c][1,2,6]thiadiazin-5-yloxy)-2′,2′-dimethyl-N-propylpropanamide
Various solutions of 3-(4-amino-2,2-dioxide-1H-benzo[c][1,2,6]thiadiazin-5-yloxy)-2′,2′-dimethyl-N-propylpropanamide 3-(4-amino-2,2-dioxide-1H-benzo[c][1,2,6]thiadiazin-5-yloxy)-2′,2′-dimethyl-N-propylpropanamide were prepared as indicated below.

Panelists = assay: Paired comparison human taste test, frosted flakes cereal; format: in vivo
Description: Frosted Flakes cereals were prepared using the following ingredients and evaluated for sweetness. The sugar frosting contained a reduced amount of sucrose (compared to the “100% sucrose” sugar coated flake cereal) and 15 ppm of 3-(4-amino-2,2-dioxide-1H-benzo[c][1,2,6]thiadiazin-5-yloxy)-2′,2′-dimethyl-N-propylpropanamide.
A Kitchen Aide mixer is equipped with a wire whip attachment and used for mixing sugar and tapioca dextrin. Mix for 5 minutes. Dissolve gum arabic in water using a magnetic stir bar and stir plate. Mix for 1 minute. Add the remaining dry ingredients and compound (if necessary) and heat until the solution reaches 230° F. for 1 minute. The compound was solubilized in ethanol to a 0.30% concentration level before adding to the syrup; this gave a better homogeneity throughout the syrup.
Place weighed amount of corn flakes in the tumbler. Add desired amount of syrup as soon as the syrup is ready. Tumble for 30 minutes while heating the flakes with a heat gun. Further dry the flakes in the convection oven for 200° F. for 50 minutes.
Panelists evaluated the two cereal samples in a paired comparison taste test procedure and were instructed to select the sweeter of the two samples.

External panelists = assay: Paired comparison test (2-alternative forced choice), Example 3B, sucrose; format: in vivo, Human; conditions: 9% sucrose chosen, vs 6% Sucrose + 10 ppm (35.29 μM) compound; n = 28
Description: Several types of sensory tests were used to determine the efficacy of 5-(neopentyloxy)-1H-benzo[c][1,2,6]thiadiazin-4-amino-2,2-dioxide in enhancing sweetness of sucrose. Two types of tests were conducted: • 1) Sensory scaling tests were performed using a 15-point percent sucrose equivalence scale for sweetness in order to evaluate sweetness enhancement 5-(neopentyloxy)-1H-benzo[c][1,2,6]thiadiazin-4-amino-2,2-dioxide in sucrose, or in fructose. • 2) Paired comparison tests (2-alternative forced choice difference tests) were used to determine sweetness equivalence for solutions of sucrose vs. 5-(neopentyloxy)-1H-benzo[c][1,2,6]thiadiazin-4-amino-2,2-dioxide or buffer vs. 5-(neopentyloxy)-1H-benzo[c][1,2,6]thiadiazin-4-amino-2,2-dioxide. Stimuli:
Panelists performed 2 directional paired comparison tests to determine which sample was sweeter. The test compared the sweetness intensity of 9% sucrose to that of 6% sucrose+10 ppm (35.29 μM) 5-(neopentyloxy)-1H-benzo[c][…]thiadiazin-4-amino-2,2-dioxide. Panelists were also to comment on the difficulty of the test and if any off tastes were perceived. Samples were completely randomized.

[3] = 33% Reduced Sucrose Frosted Flakes + 15 ppm compound chosen, 14 panelists

- Results (dissolution) ([1]; Ethanol, 1.0%, Ambient/over 30 minutes): Did not go into solution
- Results (dissolution) ([1]; Glycerol, 0.1%, Ambient/over 30 minutes): Did not go into solution
- Results (dissolution) ([1]; Lactic Acid, 1.0%, Ambient/over 30 minutes): Did not go into solution
- Results (dissolution) ([1]; Neobee, 0.1%, 185° F./over 30 minutes): Did not go into solution
- Results (dissolution) ([1]; Neobee, 0.1%, Ambient/over 30 minutes): Did not go into solution
- Results (dissolution) ([1]; Olive Oil (Star Original), 0.1%, 150° F./over 30 minutes): Did not go into solution
- Results (dissolution) ([1]; Olive Oil (Star Original), 0.1%, Ambient/over 30 minutes): Did not go into solution
- Results (dissolution) ([1]; Phosphoric acid, 0.1%, Ambient/over 30 minutes): Did not go into solution
- Results (dissolution) ([1]; Propylene Glycol, 0.3%, Ambient/over 30 minutes): Did not go into solution
- Results (dissolution) ([1]; Propylene Glycol, 0.5%, Ambient/over 30 minutes): Did not go into solution
- Results (dissolution) ([1]; Propylene Glycol, 1.0%, Ambient/over 30 minutes): Did not go into solution
- Results (dissolution) ([1]; Triacetin, 0.1%, Ambient/over 30 minutes): Did not go into solution
- concentration obtained ([1]; in ethanol): about 0.1 wt. %
- concentration readily obtained ([1]; in propylene glycol): ≤ 0.5%
- concentration obtained ([1]; in water): 10 ppm
- solubility rate ([1]; pH 7.8, before sodium bicarbonate): 0.5%
- solubility rate ([1]; sodium bicarbonate raises pH to 8.5): 1.0%
- Solubility (ppm) ([2]; Citric Acid Buffer, pH 2.8): 50 ppm
- Solubility (ppm) ([2]; Citric Acid Buffer, pH 4.0): 50 ppm
- Solubility (ppm) ([2]; Ethanol): 3757 ppm
- Solubility (ppm) ([2]; Glycerol): 2800 ppm
- Solubility (ppm) ([2]; Phosphate Buffer, pH 7.1): 602 ppm
- Solubility (ppm) ([2]; Propylene Glycol (PG)): 6096 ppm
- Solubility (ppm) ([2]; Triacetin): 567 ppm
- solubility ([2]; aqueous buffer, Citric Acid Buffer, pH 4.0): 140 µM (≈ 49.6 µg/mL)
- solubility ([2]; citric acid buffer, pH 2.8, aqueous buffer): 140 µM (≈ 49.6 µg/mL)
- solubility ([2]; ethanol, organic solvent or mixture): 10600 µM (≈ 3760 µg/mL)
- solubility ([2]; glycerol, organic solvent or mixture): 7900 µM (≈ 2800 µg/mL)
- solubility ([2]; organic solvent or mixture, Propylene Glycol (PG)): 17200 µM (≈ 6100 µg/mL)
- solubility ([2]; phosphate buffer, pH 7.1, aqueous buffer): 1700 µM (≈ 603 µg/mL)
- solubility ([2]; triacetin, organic solvent or mixture): 1600 µM (≈ 567 µg/mL)
Compound: CCCNC(=O)C(C)(C)COc1cccc2c1C(N)=NS(=O)(=O)N2 [3-(4-amino-2,2-dioxide-1H-benzo[c][1,2,6]thiadiazin-5-yloxy)-2′,2′-dimethyl-N-propylpropanamide]
- aqueous solubility (conclusion) ([2]; aqueous buffers pH 2.8-7.1): pH dependent, and lower solubility was found at low pH
- Sample selected as sweeter by panelists, Test 1 (Panelists; [3]): 6
- Sample selected as sweeter by panelists, Test 2 (Panelists; [3]): 9
- Sample selected as sweeter by panelists, Test 3 (Panelists; [3]): 9
- Sample selected as sweeter by panelists, Total (Panelists; 33% Reduced Sucrose Frosted Flakes + 15 ppm compound chosen, n = 42): 24
- Sweetness comparison (conclusion) (Panelists; 33% Reduced Sucrose Frosted Flakes + 15 ppm compound vs 100% Sucrose Frosted Flakes): not significantly different in sweetness

Compound: OC[C@H]1O[C@@](CO)(O[C@H]2O[C@H](CO)[C@@H](O)[C@H](O)[C@H]2O)[C@@H](O)[C@@H]1O [Sucrose, sucrose]
- Sample selected as more sweet by panelists, Total (External panelists): 9
